Test results from patent US20200121706A1, “METHOD FOR INHIBITING MYOPIA AND APPLICATION IN PREPARING DRUG” (WENZHOU MEDICAL UNIVERSITY, priority 2017, published 2020).

Experiments:
Format in all cases: in vivo, Cavia porcellus
collagen type I = experiment: Western Blot of scleral collagen type I after administration in form-deprived eyes; conditions: sclera removed after administration
Description: (§1) The experimental animals used in this experiment were 3-week-old British shorthair three-colored guinea pigs (Cavia porcellus). Mask technique was used as a model of monocular form-deprivation (FD) myopia. In the myopic sclera HIF-1α expression experiment, the animals were randomly divided into three groups: the normal control group, FD 1 week group, and FD 1 week & 2-day recovery group. […] In the administration experiment, HIF-1α inhibitors salidroside and formononetin were administered to the form-deprived eyes by periocular injection to inhibit HIF-1α activity. The animals in the salidroside injection experiment were randomly divided into three groups: form-deprivation+solvent control group (FD+0.9% normal saline (NS)), form-deprivation+low concentration drug group (FD+SDS 1 μg), and form-deprivation+high concentration drug group (FD+SDS 10 μg). […] Before the experiment and after 2 weeks and 4 weeks of administration respectively, the diopter was measured with an eccentric infrared photo-refractor (EIR), and the ocular axis parameters such as vitreous chamber depth and ocular axis length were measured with amplitude-mode ultrasound (11 MHz). After the administration, the sclera was removed and the expression of HIF-1α and collagen type I were detected by Western Blot.

[1] = system: scleral hypoxia-inducible factor-1α (HIF-1α); experiment: Western Blot of scleral HIF-1α after administration in form-deprived eyes; conditions: sclera removed after administration
Description: as §1

form-deprivation myopia = experiment: Monocular form-deprivation (FD) myopia model, periocular injection; diopter by eccentric infrared photo-refractor, ocular axis parameters by A-mode ultrasound; conditions: guinea pig FD eyes, daily periocular injection, after 4 weeks
Description: The experimental animals used in this experiment were 3-week-old British shorthair three-colored guinea pigs (Cavia porcellus). Mask technique was used as a model of monocular form-deprivation (FD) myopia. In the myopic sclera HIF-1α expression experiment, the animals were randomly divided into three groups: the normal control group, FD 1 week group, and FD 1 week & 2-day recovery group. […] In the administration experiment, HIF-1α inhibitors salidroside and formononetin were administered to the form-deprived eyes by periocular injection to inhibit HIF-1α activity. The animals in the salidroside injection experiment were randomly divided into three groups: form-deprivation+solvent control group (FD+0.9% normal saline (NS)), form-deprivation+low concentration drug group (FD+SDS 1 μg), and form-deprivation+high concentration drug group (FD+SDS 10 μg). The animals in the formononetin injection experiment were randomly divided into three groups: form-deprivation+solvent control group (FD+DMSO), form-deprivation+low concentration drug group (FD+FMN 0.5 μg), and form-deprivation+high concentration drug group (FD+FMN 5 μg). Periocular injection of drugs was performed daily at 9 am for 4 weeks without treatment of the contralateral eyes. Before the experiment and after 2 weeks and 4 weeks of administration respectively, the diopter was measured with an eccentric infrared photo-refractor (EIR), and the ocular axis parameters such as vitreous chamber depth and ocular axis length were measured with amplitude-mode ultrasound (11 MHz). After the administration, the sclera was removed and the expression of HIF-1α and collagen type I were detected by Western Blot.

OC[C@H]1O[C@@H](OCCc2ccc(O)cc2)[C@H](O)[C@@H](O)[C@@H]1O [salidroside]
down-regulation of collagen (type I) expression in the sclera of FDM eyes (collagen type I): inhibited
up-regulation of HIF-1α expression in the sclera of FDM eyes [1]: inhibited
extension of ocular axis (ocular axis length difference) compared with solvent-injection group (form-deprivation myopia): relatively smaller
extension of vitreous chamber (vitreous chamber depth difference) compared with solvent-injection group (form-deprivation myopia): relatively smaller
myopia formation (diopter difference between experimental eyes and contralateral eyes) compared with form-deprivation solvent-injection group (form-deprivation myopia): significantly reduced
